Assay results published in patent US20130065922A1, “NOVEL AMIDES AS FUNGICIDES” (priority 2010, published 2013).

Legend:
[1] = system: Phytophthora infestans; test: whole plant or invertebrate; type: in vivo; details: in Solanum lycopersicum, foliar, read-out: inhibit fungal infestation
[2] = system: Plasmopara viticola; test: whole plant or invertebrate; type: in vivo; details: foliar, read-out: inhibit fungal infestation
[3] = system: Blumeria graminis f. Sp. tritici (Erysiphe graminis f. Sp. tritici); test: Blumeria graminis f. Sp. tritici (Erysiphe graminis f. Sp. tritici)/Wheat/Leaf Disc Preventative (Powdery Mildew on Wheat); type: in vivo; details: foliar, 200 ppm, wheat leaf segments cv. Kanzler, preventative, 6-8 days after application, untreated control infected to over 80%, read-out: inhibit fungal infestation
[4] = system: Phaeosphaeria nodorum (Septoria nodorum); test: Phaeosphaeria nodorum (Septoria nodorum)/Wheat/Leaf Disc Preventative (Glume Blotch); type: in vivo; details: Parastagonospora nodorum, foliar; 200 ppm; wheat leaf segments cv. Kanzler, preventative; 5-7 days after application; untreated control infected to over 80%; read-out: inhibit fungal infestation
[5] = system: Pythium ultimum; test: Pythium ultimum/Liquid Culture (Seedling Damping Off); type: cell-based; details: Globisporangium ultimum; 200 ppm; liquid culture (PDB), 24° C., growth inhibition photometrically 2-3 days after application; read-out: inhibit fungal infestation

CO/N=C/C(C)(C)NC(=O)C(Oc1ccc2ncc(SC)cc2c1)SC (stereo not drawn) [Compound 27, N-(2-Methoxy-imino-1,1-dimethyl-ethyl)-2-methylsulfanyl-2-(3-methylsulfanyl-quinolin-6-yloxy)-acetamide]
inhibition at 200 ppm [1]: ≥ 80% | inhibition at 200 ppm [2]: ≥ 80% | inhibition at 200 ppm [3]: ≥ 80% | inhibition at 200 ppm [4]: ≥ 80% | inhibition at 200 ppm [5]: ≥ 80% | melting point: 120 to 122 °C
